Measurements from ChEMBL document CHEMBL5724914, “Linking interpersonal differences in gut microbiota composition and drug biotransformation activity” (2024).

assay: (§1) The drug is tested on Z-029 corresponding to rat gut metagenome with ENA study accession number: PRJEB37062 and ENA sample accession number: ERS12561828 for biotransformation under anaerobic condition. The drug concentrations were measured over 9 timepoints collected between 0 and 24 hours of incubation by liquid-chromatography-coupled mass spectrometry (LC–MS); conditions: 2 µM
Further: call rule not given here.

Row | Bacterial Biotransformation | SMILES
1 | Compound NOT metabolized | CC[C@H](C)C(=O)O[C@H]1C[C@@H](C)C=C2C=C[C@H](C)[C@H](CC[C@@H]3C[C@@H](O)CC(=O)O3)[C@H]21 [LOVASTATIN]
2 | Compound NOT metabolized | CN(C)CC(c1ccc(O)cc1)C1(O)CCCCC1.O=C(O)CCC(=O)O (stereo not given) [DESVENLAFAXINE SUCCINATE]

assay: as §1, with “on Z-022” for “on Z-029”, “to mouse” for “to rat”, “number: ERS12561821” for “number: ERS12561828”; conditions: 2 µM

Row | Bacterial Biotransformation | SMILES
3 | Compound metabolized | CC[C@H](C)C(=O)O[C@H]1C[C@@H](C)C=C2C=C[C@H](C)[C@H](CC[C@@H]3C[C@@H](O)CC(=O)O3)[C@H]21 [LOVASTATIN]
4 | Compound NOT metabolized | CN(C)CC(c1ccc(O)cc1)C1(O)CCCCC1.O=C(O)CCC(=O)O (stereo not given) [DESVENLAFAXINE SUCCINATE]

assay: as §1, with “on Z-017” for “on Z-029”, “to mouse” for “to rat”, “number: ERS12561816” for “number: ERS12561828”; conditions: 2 µM

Row | Bacterial Biotransformation | SMILES
5 | Compound metabolized | CC[C@H](C)C(=O)O[C@H]1C[C@@H](C)C=C2C=C[C@H](C)[C@H](CC[C@@H]3C[C@@H](O)CC(=O)O3)[C@H]21 [LOVASTATIN]
6 | Compound NOT metabolized | CN(C)CC(c1ccc(O)cc1)C1(O)CCCCC1.O=C(O)CCC(=O)O (stereo not given) [DESVENLAFAXINE SUCCINATE]

assay: as §1, with “on Z-006” for “on Z-029”, “to mouse” for “to rat”, “number: ERS12561806” for “number: ERS12561828”; conditions: 2 µM

Row | Bacterial Biotransformation | SMILES
7 | Compound NOT metabolized | CC[C@H](C)C(=O)O[C@H]1C[C@@H](C)C=C2C=C[C@H](C)[C@H](CC[C@@H]3C[C@@H](O)CC(=O)O3)[C@H]21 [LOVASTATIN]
8 | Compound NOT metabolized | CN(C)CC(c1ccc(O)cc1)C1(O)CCCCC1.O=C(O)CCC(=O)O (stereo not given) [DESVENLAFAXINE SUCCINATE]

assay: as §1, with “Z-005” for “Z-029”, “to” for “to rat gut”, “ERS12561805” for “ERS12561828”; conditions: 2 µM

Row | Bacterial Biotransformation | SMILES
9 | Compound NOT metabolized | CC[C@H](C)C(=O)O[C@H]1C[C@@H](C)C=C2C=C[C@H](C)[C@H](CC[C@@H]3C[C@@H](O)CC(=O)O3)[C@H]21 [LOVASTATIN]
10 | Compound NOT metabolized | CN(C)CC(c1ccc(O)cc1)C1(O)CCCCC1.O=C(O)CCC(=O)O (stereo not given) [DESVENLAFAXINE SUCCINATE]

assay: as §1, with “Z-004” for “Z-029”, “to” for “to rat gut”, “ERS12561804” for “ERS12561828”; conditions: 2 µM

Row | Bacterial Biotransformation | SMILES
11 | Compound NOT metabolized | CC[C@H](C)C(=O)O[C@H]1C[C@@H](C)C=C2C=C[C@H](C)[C@H](CC[C@@H]3C[C@@H](O)CC(=O)O3)[C@H]21 [LOVASTATIN]
12 | Compound NOT metabolized | CN(C)CC(c1ccc(O)cc1)C1(O)CCCCC1.O=C(O)CCC(=O)O (stereo not given) [DESVENLAFAXINE SUCCINATE]

assay: as §1, with “on WLS-350” for “on Z-029”, “to human” for “to rat”, “number: ERS12561789” for “number: ERS12561828”; conditions: 2 µM

Row | Bacterial Biotransformation | SMILES
13 | Compound NOT metabolized | CC[C@H](C)C(=O)O[C@H]1C[C@@H](C)C=C2C=C[C@H](C)[C@H](CC[C@@H]3C[C@@H](O)CC(=O)O3)[C@H]21 [LOVASTATIN]
14 | Compound NOT metabolized | CN(C)CC(c1ccc(O)cc1)C1(O)CCCCC1.O=C(O)CCC(=O)O (stereo not given) [DESVENLAFAXINE SUCCINATE]

assay: as §1, with “on WLS-220” for “on Z-029”, “to human” for “to rat”, “number: ERS12561769” for “number: ERS12561828”; conditions: 2 µM

Row | Bacterial Biotransformation | SMILES
15 | Compound NOT metabolized | CC[C@H](C)C(=O)O[C@H]1C[C@@H](C)C=C2C=C[C@H](C)[C@H](CC[C@@H]3C[C@@H](O)CC(=O)O3)[C@H]21 [LOVASTATIN]
16 | Compound NOT metabolized | CN(C)CC(c1ccc(O)cc1)C1(O)CCCCC1.O=C(O)CCC(=O)O (stereo not given) [DESVENLAFAXINE SUCCINATE]

assay: as §1, with “on WLS-069” for “on Z-029”, “to human” for “to rat”, “number: ERS12561748” for “number: ERS12561828”; conditions: 2 µM

Row | Bacterial Biotransformation | SMILES
17 | Compound NOT metabolized | CC[C@H](C)C(=O)O[C@H]1C[C@@H](C)C=C2C=C[C@H](C)[C@H](CC[C@@H]3C[C@@H](O)CC(=O)O3)[C@H]21 [LOVASTATIN]
18 | Compound NOT metabolized | CN(C)CC(c1ccc(O)cc1)C1(O)CCCCC1.O=C(O)CCC(=O)O (stereo not given) [DESVENLAFAXINE SUCCINATE]

assay: as §1, with “on WLS-052” for “on Z-029”, “to human” for “to rat”, “number: ERS12561747” for “number: ERS12561828”; conditions: 2 µM

Row | Bacterial Biotransformation | SMILES
19 | Compound NOT metabolized | CC[C@H](C)C(=O)O[C@H]1C[C@@H](C)C=C2C=C[C@H](C)[C@H](CC[C@@H]3C[C@@H](O)CC(=O)O3)[C@H]21 [LOVASTATIN]
20 | Compound NOT metabolized | CN(C)CC(c1ccc(O)cc1)C1(O)CCCCC1.O=C(O)CCC(=O)O (stereo not given) [DESVENLAFAXINE SUCCINATE]

conditions: human gut metagenome, 24 h, 2 µM

Row | Bacterial Biotransformation | SMILES
21 | Compound NOT metabolized | CC[C@H](C)C(=O)O[C@H]1C[C@@H](C)C=C2C=C[C@H](C)[C@H](CC[C@@H]3C[C@@H](O)CC(=O)O3)[C@H]21 [LOVASTATIN]
22 | Compound NOT metabolized | CN(C)CC(c1ccc(O)cc1)C1(O)CCCCC1.O=C(O)CCC(=O)O (stereo not given) [DESVENLAFAXINE SUCCINATE]

conditions: human gut metagenome, 24 h, 2 µM; remark: another data set of the same source

Row | Bacterial Biotransformation | SMILES
23 | Compound NOT metabolized | CC[C@H](C)C(=O)O[C@H]1C[C@@H](C)C=C2C=C[C@H](C)[C@H](CC[C@@H]3C[C@@H](O)CC(=O)O3)[C@H]21 [LOVASTATIN]
24 | Compound NOT metabolized | CN(C)CC(c1ccc(O)cc1)C1(O)CCCCC1.O=C(O)CCC(=O)O (stereo not given) [DESVENLAFAXINE SUCCINATE]

conditions: human gut metagenome, 24 h, 2 µM; remark: another data set of the same source

Row | Bacterial Biotransformation | SMILES
25 | Compound NOT metabolized | CC[C@H](C)C(=O)O[C@H]1C[C@@H](C)C=C2C=C[C@H](C)[C@H](CC[C@@H]3C[C@@H](O)CC(=O)O3)[C@H]21 [LOVASTATIN]
26 | Compound NOT metabolized | CN(C)CC(c1ccc(O)cc1)C1(O)CCCCC1.O=C(O)CCC(=O)O (stereo not given) [DESVENLAFAXINE SUCCINATE]

conditions: human gut metagenome, 24 h, 2 µM; remark: another data set of the same source

Row | Bacterial Biotransformation | SMILES
27 | Compound NOT metabolized | CC[C@H](C)C(=O)O[C@H]1C[C@@H](C)C=C2C=C[C@H](C)[C@H](CC[C@@H]3C[C@@H](O)CC(=O)O3)[C@H]21 [LOVASTATIN]
28 | Compound NOT metabolized | CN(C)CC(c1ccc(O)cc1)C1(O)CCCCC1.O=C(O)CCC(=O)O (stereo not given) [DESVENLAFAXINE SUCCINATE]

conditions: human gut metagenome, 24 h, 2 µM; remark: another data set of the same source

Row | Bacterial Biotransformation | SMILES
29 | Compound NOT metabolized | CC[C@H](C)C(=O)O[C@H]1C[C@@H](C)C=C2C=C[C@H](C)[C@H](CC[C@@H]3C[C@@H](O)CC(=O)O3)[C@H]21 [LOVASTATIN]
30 | Compound NOT metabolized | CN(C)CC(c1ccc(O)cc1)C1(O)CCCCC1.O=C(O)CCC(=O)O (stereo not given) [DESVENLAFAXINE SUCCINATE]

conditions: human gut metagenome, 24 h, 2 µM; remark: another data set of the same source

Row | Bacterial Biotransformation | SMILES
31 | Compound NOT metabolized | CC[C@H](C)C(=O)O[C@H]1C[C@@H](C)C=C2C=C[C@H](C)[C@H](CC[C@@H]3C[C@@H](O)CC(=O)O3)[C@H]21 [LOVASTATIN]
32 | Compound NOT metabolized | CN(C)CC(c1ccc(O)cc1)C1(O)CCCCC1.O=C(O)CCC(=O)O (stereo not given) [DESVENLAFAXINE SUCCINATE]

conditions: human gut metagenome, 24 h, 2 µM; remark: another data set of the same source

Row | Bacterial Biotransformation | SMILES
33 | Compound NOT metabolized | CC[C@H](C)C(=O)O[C@H]1C[C@@H](C)C=C2C=C[C@H](C)[C@H](CC[C@@H]3C[C@@H](O)CC(=O)O3)[C@H]21 [LOVASTATIN]
34 | Compound NOT metabolized | CN(C)CC(c1ccc(O)cc1)C1(O)CCCCC1.O=C(O)CCC(=O)O (stereo not given) [DESVENLAFAXINE SUCCINATE]

conditions: human gut metagenome, 24 h, 2 µM; remark: another data set of the same source

Row | Bacterial Biotransformation | SMILES
35 | Compound NOT metabolized | CC[C@H](C)C(=O)O[C@H]1C[C@@H](C)C=C2C=C[C@H](C)[C@H](CC[C@@H]3C[C@@H](O)CC(=O)O3)[C@H]21 [LOVASTATIN]
36 | Compound NOT metabolized | CN(C)CC(c1ccc(O)cc1)C1(O)CCCCC1.O=C(O)CCC(=O)O (stereo not given) [DESVENLAFAXINE SUCCINATE]

conditions: human gut metagenome, 24 h, 2 µM; remark: another data set of the same source

Row | Bacterial Biotransformation | SMILES
37 | Compound NOT metabolized | CC[C@H](C)C(=O)O[C@H]1C[C@@H](C)C=C2C=C[C@H](C)[C@H](CC[C@@H]3C[C@@H](O)CC(=O)O3)[C@H]21 [LOVASTATIN]
38 | Compound NOT metabolized | CN(C)CC(c1ccc(O)cc1)C1(O)CCCCC1.O=C(O)CCC(=O)O (stereo not given) [DESVENLAFAXINE SUCCINATE]

conditions: human gut metagenome, 24 h, 2 µM; remark: another data set of the same source

Row | Bacterial Biotransformation | SMILES
39 | Compound NOT metabolized | CC[C@H](C)C(=O)O[C@H]1C[C@@H](C)C=C2C=C[C@H](C)[C@H](CC[C@@H]3C[C@@H](O)CC(=O)O3)[C@H]21 [LOVASTATIN]
40 | Compound NOT metabolized | CN(C)CC(c1ccc(O)cc1)C1(O)CCCCC1.O=C(O)CCC(=O)O (stereo not given) [DESVENLAFAXINE SUCCINATE]
